# Laboratory results published in patent US6608064B2, “Pharmaceutical agents for the treatment of Parkinson's disease, ADHD and microadenomas” (Pfizer Inc, priority 1998, dated 2003).
# Test system: MPTP-(1-methyl-4-phenyl-1,2,3,6-tetrahydropyridine) treated monkeys
# Test: Parkinsonian score in MPTP-treated monkeys after administration of sunipetron
# Type: in vivo
# Details: 0.5 mg/kg or 1.0 mg/kg, rated at 4 time points vs vehicle, estimated plasma levels (FIG. 1)
# Experimental: Neurol., 35:655-661, 1994, and Klockgether et al., Ann. Neurol., 30:717-723, 1991.
# The behavioral effects of administration of sunipetron on parkinsonian score in MPTP-(1-methyl-4-phenyl-1,2,3,6-tetrahydropyridine) treated monkeys was determined. The methods employed are described in Greenemyre et al., supra and Klockgether et al., supra.
# Briefly, parkinsonian monkeys were administered 0.5 mg/kg or 1.0 mg/kg of sunipetron and the severity of parkinsonian symptoms was rated at each of 4 time points after drug administration as compared with administration of a control solution (“Vehicle”).
# The minimum effective plasma level was approximately 100 ng/ml.
structure (smiles),measurement,value
O=C1CCC(=O)N1C[C@H]1CC[C@H]2CN(c3ncccn3)CCN2C1 [sunipetron],minimum effective plasma level (reduction in parkinsonian score),approximately 100 ng/ml
same,plasma level at which the maximum reduction in parkinsonian score was attained,approximately 200 ng/ml
